{"source": "patent US9320750B2", "about": "“Compositions and methods of treatment of drug resistant cancers” (priority 2012, dated 2016)", "key": {"BT-20 xenograft tumors": {"system": "BT-20 xenograft tumors", "assay": "Xenograft tumor model"}, "BT-20 cells [1]": {"system": "BT-20 cells", "procedure": "(§1) 1×10^6 cells were seeded in a 10 cm dish 24 hr prior to the experiment. […] Following the treatment time course, cells were washed in PBS, trypsinized, and fixed in 4% paraformaldehyde (PFA) in PBS for 15 min at room temperature (RT), then resuspended in ice cold methanol and incubated overnight at −20° C. Cells were then washed twice in PBS+0.1% Tween and stained with antibodies directed against cleaved forms of caspase-3 and PARP (BD PharMingen). […] Data reported are always percent cleaved-caspase-3/cleaved-PARP double positive cells.\n(§2) Following the treatment time course, cells were washed, trypsinized, fixed in 4% paraformaldehyde for 15 min at room temperature, resuspended in ice-cold methanol, and incubated overnight at −20° C. Cells were then washed twice in PBS-Tween and stained with antibodies against cleaved caspase-3 and poly(ADP-ribose) polymerase (PARP). Secondary Alexa-conjugated anti-bodies were used for visualization in a BD FacsCaliber flow cytometer."}, "[2]": {"system": "ten triple-negative cell lines", "assay": "Apoptosis across panel of triple-negative cell lines", "type": "cell-based, human", "details": "time-staggered ERL→DOX", "procedure": "(§3) 1×10^6 cells were seeded in a 10 cm dish 24 hr prior to the experiment. […]. Following the treatment time course, cells were washed in PBS, trypsinized, and fixed in 4% paraformaldehyde (PFA) in PBS for 15 min at room temperature (RT), then resuspended in ice cold methanol and incubated overnight at −20° C. Cells were then washed twice in PBS+0.1% Tween and stained with antibodies directed against cleaved forms of caspase-3 and PARP (BD PharMingen). Secondary antibodies conjugated to Alexa dyes (488 and 647) were used for visualization in a BD FacsCaliber flow cytometer (Molecular Probes). Data reported are always percent cleaved-caspase-3/cleaved-PARP double positive cells.\nas §2"}, "Hs578Bst": {"system": "Hs578Bst", "assay": "Apoptosis, cleaved caspase-3/cleaved PARP flow cytometry", "type": "cell-based, human", "details": "erlotinib-doxorubicin combinations; normal peripheral breast tissue line", "procedure": "as §1, §2"}, "MCF7 cells [3]": {"system": "MCF7 cells", "assay": "Apoptosis, cleaved caspase-3/cleaved PARP flow cytometry"}, "MCF7 cells [4]": {"system": "MCF7 cells", "assay": "RNA expression analysis by microarray", "type": "cell-based, human", "details": "erlotinib alone, 24 hr", "source_text": "(§4) RNA was extracted from cells using the RNAeasy Kit (QIAGEN). Affymetrix Human U133 Plus 2.0 microarrays were hybridized, labeled, and processed on a fee-for-service basis through the MIT BioMicro Center. Microarray data were obtained from three independent biological replicates per time point and analyzed using linear model for microarray (LIMMA).\n(§5) RNA was extracted from cells using the RNAeasy Kit (QIAGEN). Affymetrix Human U133 Plus 2.0 microarrays were hybridized, labeled and processed on a fee-for-service basis through the BioMicro Center at MIT. Microarray data were obtained from 3 independent biological replicates per time point. Detailed analysis of microarray data was performed with help from the Bioinformatics Core Facility at the Koch Institute at MIT. Expression data can be found in the GEO repository under the accession number GSE30516."}, "BT-20 cells [5]": {"system": "BT-20 cells", "assay": "RNA expression analysis by microarray", "type": "cell-based, human", "details": "for differentially expressed genes (DEGs): erlotinib alone", "source_text": "as §4, §5"}, "MDA-MB-453 cells [6]": {"system": "MDA-MB-453 cells", "assay": "RNA expression analysis by microarray", "type": "cell-based, human", "details": "erlotinib alone, 24 hr", "source_text": "as §4, §5"}, "BT-20 cells [7]": {"system": "BT-20 cells", "assay": "Soft agar growth assay", "type": "cell-based, human", "details": "sustained EGFR inhibition with erlotinib", "procedure": "Soft agar growth assays were performed as described by Sapi, E., Flick, M. B., Rodov, S, and Kacinski, B. M. (1998). Ets-2 Transdominant Mutant Abolishes Anchorage-Independent Growth and Macrophage Colony Stimulating Factor-Stimulated Invasion by BT20 Breast Carcinoma Cells. Cancer Res. 58, 1027-1033."}, "A549": {"system": "A549", "assay": "Apoptosis, cleaved caspase-3/cleaved PARP flow cytometry", "details": "time-staggered inhibition of EGFR using erlotinib (ERL→DOX)"}, "NCI-H1650 cells": {"system": "NCI-H1650 cells", "assay": "Apoptosis, cleaved caspase-3/cleaved PARP flow cytometry", "details": "time-staggered inhibition of EGFR using erlotinib (ERL→DOX)"}, "NCI-H358": {"system": "NCI-H358", "assay": "Apoptosis, cleaved caspase-3/cleaved PARP flow cytometry", "details": "time-staggered inhibition of EGFR using erlotinib (ERL→DOX)"}, "BT-474 cells": {"system": "BT-474 cells", "assay": "Apoptosis, cleaved caspase-3/cleaved PARP flow cytometry", "type": "cell-based, human", "procedure": "as §3, §2"}, "MDA-MB-453 cells [8]": {"system": "MDA-MB-453 cells", "assay": "Apoptosis, cleaved caspase-3/cleaved PARP flow cytometry", "type": "cell-based, human", "procedure": "as §3, §2"}, "caspase-8 [9]": {"system": "caspase-8", "assay": "Caspase-8 cleavage by western blot in lung cancer cell lines", "type": "cell-based, human", "details": "ERL→DOX in NCI-H1650, A549 and NCI-H358", "source_text": "(§6) Cells were lysed in a manner that would allow samples to be used for both western blot analysis and reverse-phase protein microarray. Data generated by quantitative western blot were preprocessed prior to use in computational modeling. Raw signals for each protein target of interest were quantified and background subtracted using the Li-COR Odyssey software and divided by P-actin signals to normalize for loading differences, and then each normalized signal was divided by a reference sample contained on each gel for gel-to-gel normalization."}, "caspase-8 [10]": {"system": "caspase-8", "assay": "Caspase-8 cleavage by western blot in TNBC cell lines", "type": "cell-based, human", "details": "TNBC cell lines in which ERL→DOX was synergistic; 8 hr after DOX", "source_text": "as §6"}, "caspase-8 [11]": {"system": "caspase-8", "assay": "Caspase-8 cleavage by western blot in HER2-driven cells", "type": "cell-based, human", "details": "lapatinib/doxorubicin combinations in HER2-driven cells (MDA-MB-453, BT-474)", "source_text": "as §6"}, "[12]": {"details": "single dose doxorubicin alone, 4 mg/kg intraperitoneally"}, "[13]": {"details": "all temporal combinations of lapatinib and doxorubicin, HER2-overexpressing cells"}, "[14]": {"details": "lapatinib pretreatment (LAP→DOX)"}}, "note": "Entries after “also recorded” stand apart in the source; their conditions may differ. Like-named read-outs stand apart in the source and are kept apart here.", "data": [{"compound": "COc1cccc2c1C(=O)c1c(O)c3c(c(O)c1C2=O)C[C@@](O)(C(=O)CO)C[C@@H]3O[C@H]1C[C@H](N)[C@H](O)[C@H](C)O1", "note": "[doxorubicin]", "values": [{"measurement": "time at which residual tumors reached pretreatment volume", "setting": "BT-20 xenograft tumors; [12]", "value": 14, "unit": "days"}, {"measurement": "tumor volume over the first 3 days after treatment", "setting": "BT-20 xenograft tumors; [12]", "value": "marked reduction in tumor volume"}]}, {"compound": "C#Cc1cccc(Nc2ncnc3cc(OCCOC)c(OCCOC)cc23)c1", "note": "[erlotinib]", "values": [{"measurement": "increase in cell killing (apoptotic response)", "setting": "BT-20 cells [1]", "value": "≤ 500", "unit": "%"}, {"measurement": "interaction with doxorubicin in killing (Chou-Talalay method)", "setting": "BT-20 cells [1]", "value": "synergistic"}, {"measurement": "killing in combination with camptothecin", "setting": "BT-20 cells [1]", "value": "Synergistic killing"}, {"measurement": "killing in combination with doxorubicin", "setting": "BT-20 cells [1]", "value": "Synergistic killing"}, {"measurement": "effect on apoptosis of adding erlotinib to EGFR knockdown cells", "setting": "BT-20 cells [1]; EGFR siRNA knockdown, delayed doxorubicin", "value": "no additional effect"}, {"measurement": "cell death", "setting": "BT-20 cells [1]; erlotinib alone", "value": "did not cause death"}, {"measurement": "apoptotic stimulus", "setting": "BT-20 cells [1]; erlotinib alone or added at the same time as or shortly before doxorubicin, 10 μM, TNBC (BT-20) cells", "value": "not a potent apoptotic stimulus"}, {"measurement": "cell lines with enhanced sensitivity to doxorubicin", "setting": "[2]; sustained EGFR inhibition", "value": "nine of ten"}, {"measurement": "cell lines with synergistic effect", "setting": "[2]; Chou-Talalay combination index", "value": "four of the ten"}, {"measurement": "tumor regrowth", "setting": "BT-20 xenograft tumors; erlotinib 25 mg/kg given 8 hr prior to doxorubicin 4 mg/kg (E→D), i.p., 14 day monitoring", "value": "failed to regrow"}, {"measurement": "initial reduction in tumor size versus doxorubicin alone", "setting": "BT-20 xenograft tumors; erlotinib 25 mg/kg given at the same time as doxorubicin 4 mg/kg (D/E), i.p.", "value": "initial reduction in tumor size was greater"}, {"measurement": "effect of order and timing of drug addition on apoptosis", "setting": "Hs578Bst", "value": "little effect"}, {"measurement": "interaction with doxorubicin (Chou-Talalay method)", "setting": "MCF7 cells [3]; all temporal erlotinib-doxorubicin combinations", "value": "merely additive"}, {"measurement": "cell death", "setting": "MCF7 cells [3]; erlotinib alone", "value": "did not cause death"}, {"measurement": "genes significantly altered", "setting": "MCF7 cells [4]", "value": "one"}, {"measurement": "breast cancer subtype gene expression pattern", "setting": "BT-20 cells [5]; chronic erlotinib treatment", "value": "progressive time-dependent loss of basal-like gene expression with concomitant gain in luminal A-like gene expression"}, {"measurement": "differentially expressed genes (DEGs)", "setting": "BT-20 cells [5]; 30 min", "value": "few"}, {"measurement": "differentially expressed genes (DEGs)", "setting": "BT-20 cells [5]; 6 hr", "value": "more than 1,200"}, {"measurement": "differentially expressed genes (DEGs)", "setting": "BT-20 cells [5]; 24 hr", "value": "more than 2,000"}, {"measurement": "GeneGO cellular networks with significant changes (of 34)", "setting": "BT-20 cells [5]; long-term erlotinib treatment", "value": 16}, {"measurement": "GSEA oncogenic signatures", "setting": "BT-20 cells [5]; sustained erlotinib exposure", "value": "loss of the Ras and MYC oncogenic signatures"}, {"measurement": "differentially expressed genes (DEGs)", "setting": "MDA-MB-453 cells [6]", "value": 235}, {"measurement": "soft agar colony formation", "setting": "BT-20 cells [7]", "value": "potently inhibited"}, {"measurement": "sensitization to killing by doxorubicin", "setting": "A549", "value": "dramatic sensitization"}, {"measurement": "sensitization to killing by doxorubicin", "setting": "NCI-H1650 cells", "value": "dramatic sensitization"}, {"measurement": "sensitization to killing by doxorubicin", "setting": "NCI-H358", "value": "dramatic sensitization"}, {"measurement": "effect on sensitivity to doxorubicin", "setting": "BT-474 cells; pretreatment with erlotinib", "value": "desensitization"}, {"measurement": "effect on doxorubicin sensitivity", "setting": "MDA-MB-453 cells [8]; chronic EGFR inhibition, erlotinib pretreatment before doxorubicin", "value": "antagonized doxorubicin sensitivity; also recorded: desensitized"}, {"measurement": "cell death", "setting": "MDA-MB-453 cells [8]; erlotinib alone", "value": "did not cause death"}, {"measurement": "caspase-8 cleavage", "setting": "caspase-8 [9]", "value": "associated with caspase-8 cleavage"}, {"measurement": "caspase-8 cleavage", "setting": "caspase-8 [10]", "value": "caspase-8 cleavage following sequential administration, but not other drug treatments"}]}, {"compound": "CS(=O)(=O)CCNCc1ccc(-c2ccc3ncnc(Nc4ccc(OCc5cccc(F)c5)c(Cl)c4)c3c2)o1", "note": "[lapatinib]", "values": [{"measurement": "killing in combination with camptothecin", "setting": "BT-20 cells [1]; time-staggered pretreatment with EGFR inhibitor, then camptothecin", "value": "Synergistic killing"}, {"measurement": "killing in combination with doxorubicin", "setting": "BT-20 cells [1]; time-staggered pretreatment with EGFR inhibitor, then doxorubicin", "value": "Synergistic killing"}, {"measurement": "interaction with doxorubicin", "setting": "BT-474 cells; [13]", "value": "synergistic"}, {"measurement": "effect on sensitivity to doxorubicin", "setting": "BT-474 cells; [14]", "value": "enhanced sensitivity to doxorubicin"}, {"measurement": "interaction with doxorubicin", "setting": "MDA-MB-453 cells [8]; [13]", "value": "synergistic"}, {"measurement": "effect on sensitivity to doxorubicin", "setting": "MDA-MB-453 cells [8]; [14]", "value": "enhanced sensitivity to doxorubicin"}, {"measurement": "caspase-8 cleavage", "setting": "caspase-8 [11]", "value": "only observed following LAP→DOX treatment"}]}]}
